# Test results published in patent US8377911B2, “Diuretics” (Merck Sharp & Dohme Corp., priority 2009, dated 2013).
# Tested on: Male beagle dogs
# Assay: canine telemetry protocol, blood pressure reduction efficacy
# Format: in vivo
# Conditions: telemetered male beagle dogs, 3 mg/kg, oral gavage
# Method: Compounds of the invention were evaluated for blood pressure reduction efficacy using the following canine telemetry protocol.
# Male beagle dogs (approximately 1-3 years old) with a body weight of between 10 and 16 kg were surgically implanted with DSI radiotelemetry devices (model: TL11M2-D70-PCT). Briefly, under an inhalant anesthesia, isoflurane/oxygen mixture (1-3.5%/to effect), the body of the telemetry device was positioned and secured intra-abdominally. Subsequently, the arterial catheter of the telemetry device was passed subcutaneously to the inguinal area and introduced into the femoral artery and advanced to the level of the descending aorta. The catheter was secured with 2-0 silk ligatures. The muscle and underlying fascia was closed over the catheter using absorbable suture and the skin was closed using non-absorbable suture. The animals were allowed a minimum recovery period of 2 weeks between surgery and the evaluation of test compounds.
# Compound evaluation consisted of a 3 day paradigm at a 3 mg/kg dose. On the first day, no compounds were administered during a 24 hour period of baseline data collection. Blood pressure and heart rate data were collected continuously for one minute periods at 10 minute intervals. On the days of compound administration half the animals received test article with the other half receiving the vehicle used for compound formulation. All test materials were administered by oral gavage in a volume of 1 mL/kg. Data are expressed either as raw values (mm Hg or beats per minute) or as the change from baseline (average value for about 12 hours in low activity period prior to dosing). Change is SBP (systolic blood pressure) and PP (pulse pressure) over time is shown below: […]
Structure (SMILES),"ΔPP (pulse pressure), change from baseline, 1-6 h [mm Hg]","ΔSBP (systolic blood pressure), change from baseline, 1-6 h [mm Hg]","ΔPP (pulse pressure), change from baseline, 6-12 h [mm Hg]","ΔSBP (systolic blood pressure), change from baseline, 6-12 h [mm Hg]","ΔPP (pulse pressure), change from baseline, 12-18 h [mm Hg]","ΔSBP (systolic blood pressure), change from baseline, 12-18 h [mm Hg]"
"CCCCON=[N+]([O-])N1CCC[C@H]1C(=O)Oc1c(C)ncc2c1CO[C@H]2c1ccc(Cl)cc1 (stereo in doubt) [Example 1, (3S)-3-(4-Chlorophenyl)-6-methyl-1,3-dihydrofuro[3,4-c]pyridin-7-yl 1-[(Z)-butoxy-NNO-azoxy]-L-prolinate]",−14.0,−15.4,−6.4,−6.2,−3.2,−0.6
"Cc1ncc2c(c1OC(=O)[C@@H]1CCCN1[N+]([O-])=NOCC(C)C)CO[C@H]2c1ccc(Cl)cc1 (stereo in doubt) [Example 5, (3S)-3-(4-Chlorophenyl)-6-methyl-1,3-dihydrofuro[3,4-c]pyridin-7-yl 1-[(Z)-2-methylpropoxy-NNO-azoxy]-L-prolinate]",−3.6,−2.4,−1.7,−2.6,−2.6,−2.8
"CCCC(C)ON=[N+]([O-])N1CCC[C@H]1C(=O)Oc1c(C)ncc2c1CO[C@H]2c1ccc(Cl)cc1 (stereo in doubt) [Example 9, (3S)-3-(4-Chlorophenyl)-6-methyl-1,3-dihydrofuro[3,4-c]pyridin-7-yl 1-[(Z)-pentan-2-yloxy-NNO-azoxy]-L-prolinate]",−10.6,−11.8,−5.2,−6.6,−2.5,1.0
"CC[C@H](C)CON=[N+]([O-])N1CCC[C@H]1C(=O)Oc1c(C)ncc2c1CO[C@H]2c1ccc(Cl)cc1 (stereo in doubt) [Example 10, (3S)-3-(4-Chlorophenyl)-6-methyl-1,3-dihydrofuro[3,4-c]pyridin-7-yl 1-((Z)-{[(2S)-2-methylbutyl]oxy}-NNO-azoxy)-L-prolinate]",0.6,−5.3,3.4,−0.9,3.8,−3.1
"Cc1ncc2c(c1OC(=O)[C@@H]1CCCN1[N+]([O-])=NOC1CCCCC1)CO[C@H]2c1ccc(Cl)cc1 (stereo in doubt) [Example 11, (3S)-3-(4-Chlorophenyl)-6-methyl-1,3-dihydrofuro[3,4-c]pyridin-7-yl 1-[(Z)-cyclohexyloxy-NNO-azoxy]-L-prolinate]",−6.9,−9.3,−2.3,−3.3,0.9,3.9
"CCCCO/N=[N+](\[O-])N1CCC(C(=O)Oc2c(C)ncc3c2CO[C@H]3c2ccc(Cl)cc2)CC1 [Example 12, (3S)-3-(4-Chlorophenyl)-6-methyl-1,3-dihydrofuro[3,4-c]pyridin-7-yl 1-[(Z)-butoxy-NNO-azoxy]piperidine-4-carboxylate]",−12,−11,−5.8,−5.8,0.8,3.3
